Assay results published in patent US12655126B2, “Imidazole-pyrazole derivatives as antibacterials” (Hoffmann-La Roche Inc., priority 2020, dated 2026).
Structures can show the parent of a compound that is named as a salt.

Test system: Acinetobacter baumannii ATCC17961
Experiment: Antimicrobial susceptibility testing: 90% growth inhibitory concentration (IC90) determination
Assay type: cell-based
Settings: Acinetobacter baumannii ATCC17961; Iso-Sensitest broth; growth by OD 600 nm over 16 h; 90% growth inhibitory concentration; read-out: ATCC 17961 IC90
Method: Antimicrobial Susceptibility Testing:
90% Growth Inhibitory Concentration (IC90) Determination
The in vitro antimicrobial activity of the compounds was determined according to the following procedure:
The assay used a 10-points Iso-Sensitest broth medium to measure quantitatively the in vitro activity of the compounds against Acinetobacter baumannii ATCC17961.
Stock compounds in DMSO were serially twofold diluted (e.g. range from 50 to 0.097 μM final concentration) in 384 wells microtiter plates and inoculated with 49 μl the bacterial suspension in Iso-Sensitest medium to have a final cell concentration of ˜5×10^(5) CFU/ml in a final volume/well of 50 ul/well. Microtiter plates were incubated at 35±2° C.
Bacterial cell growth was determined with the measurement of optical density at λ=600 nm each minutes over a time course of 16 h. Growth inhibition was calculated during the logarithmic growth of the bacterial cells with determination of the concentration inhibiting 50% (IC50) and 90% (IC90) of the growth.
Table 1 provides the 90% growth inhibitory concentrations (IC90) in micromoles per liter of the compounds of present invention obtained against the strain Acinetobacter baumannii ATCC17961.

Row | IC90 [nM] | Structure (SMILES)
1 | 400 | Cn1c(-c2cn(-c3ccc(N)cn3)nc2C(F)(F)F)cnc1C(=O)Nc1ccc(C(=O)N2CCN(C(=O)[C@@H]3[C@@H](O)CC[N+]3(C)C)CC2)c(Cl)c1 (racemic) [Example D2, 5-[1-(5-amino-2-pyridyl)-3-(trifluoromethyl)pyrazol-4-yl]-N-[3-chloro-4-[4-[(2S,3S)-3-hydroxy-1,1-dimethyl-pyrrolidin-1-ium-2-carbonyl]piperazine-1-carbonyl]phenyl]-1-methyl-imidazole-2-carboxamide; formate]
2 | 240 | Cn1c(-c2cn(-c3ccc(N)cn3)nc2C(F)(F)F)cnc1C(=O)Nc1ccc(C(=O)N2CCN(C(=O)[C@@H]3CC[N+](C)(C)C[C@@H]3O)CC2)c(Cl)c1 (stereo in doubt) [Example D5, 5-[1-(5-amino-2-pyridyl)-3-(trifluoromethyl)pyrazol-4-yl]-N-[3-chloro-4-[4-[(3R,4R)-3-hydroxy-1,1-dimethyl-piperidin-1-ium-4-carbonyl]piperazine-1-carbonyl]phenyl]-1-methyl-imidazole-2-carboxamide; formate]
3 | 370 | Cn1c(-c2cn(-c3ccc(N)cn3)nc2C(F)(F)F)cnc1C(=O)Nc1ccc(C(=O)N2CCN(C(=O)[C@@H]3CC[N+](C)(C)C[C@H]3O)CC2)c(Cl)c1 (stereo in doubt) [Example D6, 5-[1-(5-amino-2-pyridyl)-3-(trifluoromethyl)pyrazol-4-yl]-N-[3-chloro-4-[4-[(3S,4R)-3-hydroxy-1,1-dimethyl-piperidin-1-ium-4-carbonyl]piperazine-1-carbonyl]phenyl]-1-methyl-imidazole-2-carboxamide; formate]
4 | 400 | Cn1c(-c2cn(-c3ccc(N)cn3)nc2C(F)(F)F)cnc1C(=O)Nc1ccc(C(=O)N2CCN(C(=O)[C@H]3CC[N+](C)(C)C[C@H]3O)CC2)c(Cl)c1 (stereo in doubt) [Example D7, 5-[1-(5-amino-2-pyridyl)-3-(trifluoromethyl)pyrazol-4-yl]-N-[3-chloro-4-[4-[(3S,4S)-3-hydroxy-1,1-dimethyl-piperidin-1-ium-4-carbonyl]piperazine-1-carbonyl]phenyl]-1-methyl-imidazole-2-carboxamide; formate]
5 | 230 | Cn1c(-c2cn(-c3ccc(N)cn3)nc2C(F)(F)F)cnc1C(=O)Nc1ccc(C(=O)N2CCN(C(=O)[C@H]3CC[N+](C)(C)C[C@@H]3O)CC2)c(Cl)c1 (stereo in doubt) [Example D8, 5-[1-(5-amino-2-pyridyl)-3-(trifluoromethyl)pyrazol-4-yl]-N-[3-chloro-4-[4-[(3R,4S)-3-hydroxy-1,1-dimethyl-piperidin-1-ium-4-carbonyl]piperazine-1-carbonyl]phenyl]-1-methyl-imidazole-2-carboxamide; formate]
6 | 980 | Cn1c(-c2cn(-c3ccc(C(N)=O)cn3)nc2C(F)(F)F)cnc1C(=O)Nc1ccc(C(=O)N2CCN(C(=O)C3CC[N+](C)(C)CC3)CC2)c(Cl)c1 [Example A2, 6-[4-[2-[[3-chloro-4-[4-(1,1-dimethylpiperidin-1-ium-4-carbonyl)piperazine-1-carbonyl]phenyl]carbamoyl]-3-methyl-imidazol-4-yl]-3-(trifluoromethyl)pyrazol-1-yl]pyridine-3-carboxamide; formate]
7 | 820 | CNC(=O)c1ccc(-n2cc(-c3cnc(C(=O)Nc4ccc(C(=O)N5CCN(C(=O)C6CC[N+](C)(C)CC6)CC5)c(Cl)c4)n3C)c(C(F)(F)F)n2)nc1 [Example A3, 6-[4-[2-[[3-chloro-4-[4-(1,1-dimethylpiperidin-1-ium-4-carbonyl)piperazine-1-carbonyl]phenyl]carbamoyl]-3-methyl-imidazol-4-yl]-3-(trifluoromethyl)pyrazol-1-yl]-N-methyl-pyridine-3-carboxamide; formate]
8 | 250 | Cc1ccc(-n2cc(-c3cnc(C(=O)Nc4ccc(C(=O)N5CCN(C(=O)C6CC[N+](C)(C)CC6)CC5)c(Cl)c4)n3C)c(C(F)(F)F)n2)nc1 [Example A4, N-[3-chloro-4-[4-(1,1-dimethylpiperidin-1-ium-4-carbonyl)piperazine-1-carbonyl]phenyl]-1-methyl-5-[1-(5-methyl-2-pyridyl)-3-(trifluoromethyl)pyrazol-4-yl]imidazole-2-carboxamide; formate]
9 | 760 | Cn1c(-c2cn(-c3ccc(N)cn3)nc2C(F)F)cnc1C(=O)Nc1ccc(C(=O)N2CCN(C(=O)C3CC[N+](C)(C)CC3)CC2)c(Cl)c1 [Example A5, 5-[1-(5-amino-2-pyridyl)-3-(difluoromethyl)pyrazol-4-yl]-N-[3-chloro-4-[4-(1,1-dimethylpiperidin-1-ium-4-carbonyl)piperazine-1-carbonyl]phenyl]-1-methyl-imidazole-2-carboxamide; 2,2,2-trifluoroacetate]
10 | 550 | COc1ccc(-n2cc(-c3cnc(C(=O)Nc4ccc(C(=O)N5CCN(C(=O)C[N+]6(C)CC[C@@H](O)C6)CC5)c(Cl)c4)n3C)c(C(F)(F)F)n2)nc1 (stereo partly drawn) [Example A7, N-[3-chloro-4-[4-[2-[(3R)-3-hydroxy-1-methyl-pyrrolidin-1-ium-1-yl]acetyl]piperazine-1-carbonyl]phenyl]-5-[1-(5-methoxy-2-pyridyl)-3-(trifluoromethyl)pyrazol-4-yl]-1-methyl-imidazole-2-carboxamide; formate]
11 | 330 | Cn1c(-c2cn(-c3ncc(N)cc3F)nc2C(F)(F)F)cnc1C(=O)Nc1ccc(C(=O)N2CCN(C(=O)C3CC[N+](C)(C)CC3)CC2)c(Cl)c1 [Example A8, 5-[1-(5-amino-3-fluoro-2-pyridyl)-3-(trifluoromethyl)pyrazol-4-yl]-N-[3-chloro-4-[4-(1,1-dimethylpiperidin-1-ium-4-carbonyl)piperazine-1-carbonyl]phenyl]-1-methyl-imidazole-2-carboxamide]
12 | 290 | Cc1cc(-n2cc(-c3cnc(C(=O)Nc4ccc(C(=O)N5CCN(C(=O)C6CC[N+](C)(C)CC6)CC5)c(Cl)c4)n3C)c(C(F)(F)F)n2)ncc1N [Example A9, 5-[1-(5-amino-4-methyl-2-pyridyl)-3-(trifluoromethyl)pyrazol-4-yl]-N-[3-chloro-4-[4-(1,1-dimethylpiperidin-1-ium-4-carbonyl)piperazine-1-carbonyl]phenyl]-1-methyl-imidazole-2-carboxamide]
13 | 510 | Cn1c(-c2cn(-c3ccc(N)c(F)n3)nc2C(F)(F)F)cnc1C(=O)Nc1ccc(C(=O)N2CCN(C(=O)C3CC[N+](C)(C)CC3)CC2)c(Cl)c1 [Example A10, 5-[1-(5-amino-6-fluoro-2-pyridyl)-3-(trifluoromethyl)pyrazol-4-yl]-N-[3-chloro-4-[4-(1,1-dimethylpiperidin-1-ium-4-carbonyl)piperazine-1-carbonyl]phenyl]-1-methyl-imidazole-2-carboxamide]
14 | 230 | Cc1nc(-n2cc(-c3cnc(C(=O)Nc4ccc(C(=O)N5CCN(C(=O)C6CC[N+](C)(C)CC6)CC5)c(Cl)c4)n3C)c(C(F)(F)F)n2)ccc1N [Example A11, 5-[1-(5-amino-6-methyl-2-pyridyl)-3-(trifluoromethyl)pyrazol-4-yl]-N-[3-chloro-4-[4-(1,1-dimethylpiperidin-1-ium-4-carbonyl)piperazine-1-carbonyl]phenyl]-1-methyl-imidazole-2-carboxamide]

Same assay, conditions: Acinetobacter baumannii, ATCC17961, 16 h, read-out: ATCC 17961 IC90

Row | Structure (SMILES) | IC90 [nM]
15 | Cn1c(-c2cn(-c3ncccn3)nc2C(F)(F)F)cnc1C(=O)Nc1ccc(C(=O)N[C@H]2[C@@H]3CN(C(=O)[C@@H]4C[C@@H](O)C[N+]4(C)C)C[C@@H]32)c(Cl)c1 (racemic) [Example B8, rac-(2R,4S)-2-((1R,5S,6S)-6-(2-chloro-4-(1-methyl-5-(1-(pyrimidin-2-yl)-3-(trifluoromethyl)-1H-pyrazol-4-yl)-1H-imidazole-2-carboxamido)benzamido)-3-azabicyclo[3.1.0]hexane-3-carbonyl)-4-hydroxy-1,1-dimethylpyrrolidin-1-ium] | 1500
16 | Cn1c(-c2cn(-c3ccc(N)cn3)nc2C(F)(F)F)cnc1C(=O)Nc1ccc(C(=O)N[C@H]2[C@@H]3CN(C(=O)N[C@@H]4C[N+](C)(C)C[C@H]4O)C[C@@H]32)c(Cl)c1 (racemic) [Example D18, (exo)-6-[[4-[[5-[1-(5-Aminopyridin-2-yl)-3-(trifluoromethyl)pyrazol-4-yl]-1-methylimidazole-2-carbonyl]amino]-2-chlorobenzoyl]amino]-N-[rac-(trans)-4-hydroxy-1,1-dimethylpyrrolidin-1-ium-3-yl]-3-azabicyclo[3.1.0]hexane-3-carboxamide; formate] | 290
17 | COc1ccc(-n2cc(-c3cnc(C(=O)Nc4ccc(C(=O)N5CCN(C(=O)C6CC[N+](C)(C)CC6)CC5)c(Cl)c4)n3C)c(C(F)(F)F)n2)nc1 [Example A1, N-[3-Chloro-4-[4-(1,1-dimethylpiperidin-1-ium-4-carbonyl)piperazine-1-carbonyl]phenyl]-5-[1-(5-methoxy-2-pyridyl)-3-(trifluoromethyl)pyrazol-4-yl]-1-methyl-imidazole-2-carboxamide; formate] | 95
18 | Cn1c(-c2cn(-c3ncccn3)nc2C(F)(F)F)cnc1C(=O)Nc1ccc(C(=O)N2CCN(C(=O)C[N+]3(C)CC[C@@H](O)C3)CC2)c(Cl)c1 (stereo partly drawn) [Example A6, N-[3-chloro-4-[4-[2-[(3R)-3-hydroxy-1-methyl-pyrrolidin-1-ium-1-yl]acetyl]piperazine-1-carbonyl]phenyl]-1-methyl-5-[1-pyrimidin-2-yl-3-(trifluoromethyl)pyrazol-4-yl]imidazole-2-carboxamide; formate] | 1300
